Measurements published in the supplement of paper PMC11579375.

Tests used:
Experiment in all cases: area under the viability dose-response curve (AUC) (AUC (arbitrary units, max 500 = no viability loss)); higher = less sensitive (higher viability)
Conditions in all cases: exposure time: 120 h; concentration range: 0.1 nM - 10 µM, 6 doses
[1] = tested on: 10F2 (fetal-II hepatoblastoma organoid with high liver markers)
Description: (§1)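 Patient-derived hepatoblastoma tumor organoids (about 50 organoids per well, 384-well plates, medium with 5% BME) were treated with the PMC pediatric cancer drug library. Each drug was tested in duplicate at 6 concentrations (0.1 nM to 10 µM, 10-fold steps).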

[2] = tested on: 135F2 (fetal-II hepatoblastoma organoid with high liver markers)
Description: as §1

[3] = tested on: 13E (embryonal-type hepatoblastoma organoid)
Description: as §1

[4] = tested on: 13F2 (fetal-II hepatoblastoma organoid with high liver markers)
Description: as §1

[5] = tested on: 17E (embryonal-type hepatoblastoma organoid)
Description: as §1

[6] = tested on: 17F1 (fetal-I hepatoblastoma organoid with intermediate liver markers)
Description: as §1

[7] = tested on: 22E (embryonal-type hepatoblastoma organoid)
Description: as §1

[8] = tested on: 27F1 (fetal-I hepatoblastoma organoid with intermediate liver markers)
Description: as §1

[9] = tested on: 3E (embryonal-type hepatoblastoma organoid)
Description: as §1

[10] = tested on: 8F1 (fetal-I hepatoblastoma organoid with intermediate liver markers)
Description: as §1

[11] = tested on: 96F1 (fetal-I hepatoblastoma organoid with intermediate liver markers)
Description: as §1

| Compound | area under the viability dose-response curve [1] | area under the viability dose-response curve [2] | area under the viability dose-response curve [3] | area under the viability dose-response curve [4] | area under the viability dose-response curve [5] | area under the viability dose-response curve [6] | area under the viability dose-response curve [7] | area under the viability dose-response curve [8] | area under the viability dose-response curve [9] | area under the viability dose-response curve [10] | area under the viability dose-response curve [11] |
| --- | --- | --- | --- | --- | --- | --- | --- | --- | --- | --- | --- |
| CC1(COc2ccc3c(c2)ncn3-c2ccc3cccc(N4CCC(N)CC4)c3n2)COC1 [Crenolanib] | 480 | 448 | > 500 | 446 | 487 | 479 | > 500 | > 500 | 466 | > 500 | 467 |
| CO[C@H]1C[C@@H]2CC[C@@H](C)[C@@](O)(O2)C(=O)C(=O)N2CCCC[C@H]2C(=O)O[C@H]([C@H](C)C[C@@H]2CC[C@@H](OCCO)[C@H](OC)C2)CC(=O)[C@H](C)/C=C(\C)[C@@H](O)[C@@H](OC)C(=O)[C@H](C)C[C@H](C)/C=C/C=C/C=C/1C [Everolimus] | 373 | 453 | 393 | 327 | 334 | 494 | 356 | > 500 | 303 | 467 | 464 |
| CCN1CCN(Cc2ccc(Nc3ncc(F)c(-c4cc(F)c5nc(C)n(C(C)C)c5c4)n3)nc2)CC1 [Abemaciclib] | 314 | 360 | 408 | 314 | 284 | 452 | 395 | 402 | 264 | 448 | 411 |
| COc1cc(C(=O)O)ccc1NC(=O)[C@@H]1N[C@@H](CC(C)(C)C)[C@](C#N)(c2ccc(Cl)cc2F)[C@H]1c1cccc(Cl)c1F [Idasanutlin] | 291 | 397 | 413 | 282 | 378 | 457 | 450 | 402 | 349 | 371 | 471 |
| COCCOc1cnc2ccn([C@H](C)c3nnc4c(F)cc(-c5cnn(C)c5)cn34)c(=O)c2c1 [AMG 337] | 446 | 488 | 488 | 483 | 494 | 495 | > 500 | – | – | – | > 500 |
| CNC(=O)c1ccccc1Sc1ccc2c(/C=C/c3ccccn3)n[nH]c2c1 [Axitinib] | 411 | 463 | 427 | 457 | 438 | 499 | – | 478 | 421 | 495 | 480 |
| CS(=O)(=O)OCCCCOS(C)(=O)=O [Busulfan] | > 500 | > 500 | 489 | > 500 | > 500 | > 500 | 490 | – | – | – | 485 |
| COCC1(CO)C(=O)C2CCN1CC2 (centres undefined) [APR-246] | > 500 | 495 | > 500 | 487 | 494 | 497 | – | 462 | > 500 | 480 | 499 |
| C/C=C1\NC(=O)[C@H]2CSSCC/C=C/[C@H](CC(=O)N[C@H](C(C)C)C(=O)N2)OC(=O)[C@H](C(C)C)NC1=O [Romidepsin] | 141 | 137 | 123 | 143 | 104 | 158 | – | 165 | 87.9 | 145 | 54.5 |
| O=C1c2c(O)ccc(O)c2C(=O)c2c(NCCNCCO)ccc(NCCNCCO)c21 [Mitoxantrone] | 294 | 285 | 274 | 222 | 257 | 319 | 340 | – | 208 | 405 | 313 |
| Cn1cnc2c(F)c(Nc3ccc(Br)cc3Cl)c(C(=O)NOCCO)cc21 [Selumetinib] | 369 | 430 | 499 | 412 | > 500 | > 500 | – | 464 | > 500 | > 500 | 491 |
| CC1(C)CCC(CN2CCN(c3ccc(C(=O)NS(=O)(=O)c4ccc(NCC5CCOCC5)c([N+](=O)[O-])c4)c(Oc4cnc5[nH]ccc5c4)c3)CC2)=C(c2ccc(Cl)cc2)C1 [Venetoclax] | 435 | 470 | 456 | 471 | 465 | 468 | – | 464 | 472 | 465 | 461 |
| Cc1c2oc3c(C)ccc(C(=O)N[C@@H]4C(=O)N[C@H](C(C)C)C(=O)N5CCC[C@H]5C(=O)N(C)CC(=O)N(C)[C@@H](C(C)C)C(=O)O[C@@H]4C)c3nc-2c(C(=O)N[C@@H]2C(=O)N[C@H](C(C)C)C(=O)N3CCC[C@H]3C(=O)N(C)CC(=O)N(C)[C@@H](C(C)C)C(=O)O[C@@H]2C)c(N)c1=O [Actinomycin D] | 160 | 127 | 205 | 114 | 150 | 187 | 215 | – | 134 | 222 | 169 |
| CCCCCCCCCCCCCCCCCCOP(=O)([O-])OC1CC[N+](C)(C)CC1 [Perifosine] | 470 | – | > 500 | 480 | 499 | > 500 | > 500 | > 500 | > 500 | 482 | – |
| CO[C@H]1C[C@@H]2CC[C@@H](C)[C@@](O)(O2)C(=O)C(=O)N2CCCC[C@H]2C(=O)O[C@H]([C@H](C)C[C@@H]2CC[C@@H](O)[C@H](OC)C2)CC(=O)[C@H](C)/C=C(\C)[C@@H](O)[C@@H](OC)C(=O)[C@H](C)C[C@H](C)/C=C/C=C/C=C/1C [Sirolimus] | 391 | 464 | 389 | 319 | 257 | > 500 | – | > 500 | 249 | 476 | > 500 |
| CC(=O)Nc1cccc(-n2c(=O)n(C3CC3)c(=O)c3c(Nc4ccc(I)cc4F)n(C)c(=O)c(C)c32)c1 [Trametinib] | 172 | 281 | 396 | 214 | 394 | 428 | – | 380 | 331 | > 500 | 418 |
| CNC(=O)c1cc(Oc2ccc(NC(=O)Nc3ccc(Cl)c(C(F)(F)F)c3)c(F)c2)ccn1 [Regorafenib] | 389 | 404 | 418 | 430 | 456 | 428 | – | 447 | 387 | 290 | 452 |
